Assay results reported in patent US11725204B2, “Multiplex genome engineering in eukaryotes” (priority 2016, dated 2023).

How the values were obtained:
Assay type in all cases: cell-based, S. cerevisiae
URA3 = test: Spontaneous URA3 mutations with transient HU treatment
Procedure: Experiments were designed to determine if transient treatment with HU would increase the efficiency for ssODN annealing at the replication fork. A 30 minute treatment with 500 mM HU increased the ARF by ˜two-fold compared to the untreated condition. Seven different ssODNs containing a single base-pair mismatch (ssODNs 1,2,5-7), insertion (ssODN #4), or deletion (ssODN #3) in ADE2 were tested and an average ARF increase of 56% (FIG. 2A) was observed. […] The effect of ssODN size and concentration was also tested. Robust cell survival post electroporation (85%) was tested for ssODN concentrations up to 20 uM, which decreased to 45% at 80 uM ssODN. The efficiency of URA3 single-plex targeting increased with increasing ssODN size and concentration with the highest ARF observed (0.08%) for 100nt ssODN at 60 uM. For coupled ADE2-URA3 targeting an optimum ade2 mutant per 5-FOA CFU was determined using a 90nt ssODN at 20 uM. For all subsequent experiments 90nt ssODNs at 20 uM were used.

[1] = test system: target sites at increasing distances from the URA3 marker; test: Target distance efficiency determination (red/white screening or colony PCR with EcoRI digestion); conditions: +HU
Procedure: Target mutation distance is reported as the distance between the URA3 marker mutation incorporated by the selection-ssODN and the mutation incorporated by the target-ssODN. For target distances of 1 and 2 kb, ssODNs ADE290RC and ADE2_Mult10 were used within the ADE2 gene and the ARFs for these sites were determined by red/white phenotype screening. For targets at 5, 10, 15, and 20 kb distances from the Ori-URA3, target sites were chosen that differ by only a single base-pair from an EcoRI restriction site. The target ssODN was designed to incorporate a base-pair change to create the EcoRI restriction site. For each target assayed, 96 clones were analyzed by colony PCR (Primers for the amplicons analyzed are listed in Table 3) coupled to EcoRI (NEB) digestion of the amplicon for 1 hr at 37° C. The percentage of amplicons cut vs. uncut is represented as the ARF for each distance site. Each distance experiment was performed in triplicate+/−HU treatment. ARF values represent mean+/−SD.

ADE2 [2] = test: Multiplex incorporation of ssODNs and cycling (colony PCR and Sanger sequencing); conditions: 10-target multiplexing, with HU
Procedure: For multiplex eMAGE experiments targeting ADE2, red clones that grew on 5-FOA plates were assayed via yeast colony PCR and Sanger sequencing (Genewiz). Insertions were chosen for easy sequence detection since degenerate mismatches would contain WT sequence positions. For cycling experiments, cells were recovered in recovery media after electroporation as described above. After recovery, the population was subjected to liquid selection in 5-FOA for odd cycles and CSM-Ura for even numbered cycles to enrich for edited clones. Selections were performed for 500 uL of recovery culture seeded into 50 mL of selection medium and grown to saturation at 30° C. (˜2 days).
After the first 1:100 selection the population was diluted 1:50 in selection media and grown for 6 hours for the next electroporation step. The process was repeated for 3 cycles. A total of 100 red clones were sequenced after each cycle. For cycles 1 and 2, 200 unique genotypes were observed out of […], but for cycle 3, 76 unique genotypes were observed out of the 100 clones sequenced. Given that the degeneracy of the ssODN pool largely out-scales the number of clones assayed redundant genotypes would not be expected to arise for independent clones in any cycle assayed. The 24 redundant clones observed in cycle 3 were comprised of 5 genotypes. […]

ADE2 [3] = test: eMAGE allelic replacement frequency at Ori-URA3-ADE2 locus (5-FOA selection, red/white screening)
Procedure: A list of ssODNs used for FIGS. 1-4 in this study can be found in Table 2. For eMAGE experiments, a single colony was inoculated in 2 mL CSM-Ura medium and grown overnight to saturation. The next day the culture was diluted 1:50 in 10 mL of CSM-Ura and grown for 6 hours prior to electroporation. The ssODN concentration and size were determined from optimization experiments performed in Figure S2D,F. A total of 20 uM of 90nt ssODNs consisting of 50% selection ssODN 50% target ssODN(s) was used for eMAGE transformations. The optimal HU concentration was determined from figure S2A. The eMAGE pretreatment mixture contained 500 mM HU in TE pH 8/500 mM Lithium Acetate/25 mM DTT. Electroporation for eMAGE was performed exactly as described above. After 12 hours of recovery, ˜10^5 cells were plated on 5-FOA selection plates for msh2Δ and MMR mutant strains and ˜10^7 cells were plated for strains with WT MMR. The resultant 5-FOA plates contained ˜100 colonies which were subject to screening for target ssODN incorporation. The indicated ARF values represent mean+/−SD. All data sets were collected in triplicate. For the Rad51 chemical inhibitor experiment (Figure S1J) the recovery medium was supplemented with inhibitor RI-1 (Abcam ab144558)+1.5% DMSO for solubility.
Experiments were designed to determine if Rad51-dependent ssODN recombination and incorporation of ssODNs at the DNA replication fork are two distinct pathways in eukaryotes (FIG. 1A). Unlike the E. coli chromosome, the linear chromosomes of S. cerevisiae contain multiple firing origins of replication that confound the precise designation of the lagging strand at each locus (Raghuraman, et al., Science, 294:115-121 (2001); Wyrick, et al., Science, 294:2357-2360 (2001)). Sherman and colleagues observed high frequencies of co-transformation for two ssODNs targeted within a cyc1 mutant gene when one of the ssODNs included a selectable mutation (Yamamoto, et al., Yeast, 8:935-948 (1992a)). […] Experiments were designed to determine whether Sherman's observation could be expanded for ssODNs targeting multiple proximal genes by constructing an experimental locus on chromosome XV with a defined DNA replication direction by placing the URA3 gene proximal to the origin ARS1516 (Ori) directly adjacent to ADE2, which confers a colorimetric phenotype (WT=white; Mutant=red) (FIG. 1C). Cells were transformed with ssODNs targeting the predicted lagging strand of both URA3 and ADE2, and it was observed that ssODN-derived modifications at ADE2 were increased by >10^4-fold (ARF=22%) in URA3-edited (5-FOA resistant) clones (FIG. 1C). […]

Compound | spontaneous URA3 mutations (URA3) | ARF vs target distance curve fit, Y0 ([1]; one-phase decay Y=(Y0−Z)*exp(−K*X)+Z) | ARF vs target distance curve fit, K ([1]; one-phase decay fit) | ARF vs target distance curve fit, Z ([1]; one-phase decay fit) | multiplex enhancement of ssODN incorporation (ADE2 [2]; WT) | mean number of ssODNs incorporated (ADE2 [2]; msh2Δ) [per clone] | increase of ARF compared to the untreated condition (ADE2 [3]; 30 minute treatment with 500 mM HU) | HU effect on ARF with HIS3 selection marker (ADE2 [3]; HIS3 selection marker in replace of URA3) | average ARF increase (ADE2 [3]; HU treatment, seven ssODNs with single base-pair mismatch, insertion or deletion in ADE2) [%] | ARF change with Rad51 inhibitor (ADE2 [3]; recovery medium supplemented with RI-1 + 1.5% DMSO)
NC(=O)NO [HU, Hydroxyurea] | no significant increase | 49.6 | 0.279 | 2.25 | no multiplex enhancement | 3.4 | two-fold | HU effect was also observed | 56 | –
O=C1C(Cl)=C(N2CCOCC2)C(=O)N1c1ccc(Cl)c(Cl)c1 [RI-1] | – | – | – | – | – | – | – | – | – | ARF enhancement was observed
